A short description of data set [1]: Lipophilicity: octanol-water partition coefficient, shake-flask method. In outline: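 Octanol and water mutually pre-saturated for 24 h; compound ([…] stock in aqueous phase) partitioned against equal volume n-octanol, mixed 15 min, phases separated by centrifugation.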
Data set [2] in a line: Luminescence emission spectra and quantum yield. Conditions: room temperature; reference POPOP in hexane or rhodamine B in ethanol. In kind it is physicochemical. In outline:
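Spectrofluorometric fluorescence/phosphorescence emission spectra of the iridium(III) complexes recorded in CH2Cl2 at room temperature. Quantum yields by the Demas–Crosby relative method on solutions at RT, from integrated emission band areas versus a reference standard of known yield, corrected for solvent refractive index.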

Data set [3] deals with MC3T3 osteoblast cells (non-tumor). In words: Cell viability assay (MTT), dark and blue light. Format: cell-based, Murine. Particulars: for GI50: read-out: GI50; for Photosensitizing index (PI): MC3T3, dark vs blue light. In outline: (§1)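 Tumor lines and non-tumor murine MC3T3 osteoblasts and NIH-3T3 fibroblasts were seeded overnight and treated with complexes at 0.1% (v/v) DMSO for 72 h. Light samples were irradiated 10 min after 8 h of dark incubation. Viability was measured by MTT absorbance at 570 nm.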

The test system of data set [4] is NIH-3T3 fibroblast cells (non-tumor). The data set is described as follows: Cell viability assay (MTT), dark and blue light. In kind it is cell-based, Murine. Particulars: for GI50: read-out: GI50; for Photosensitizing index (PI): NIH-3T3, dark vs blue light. In outline:
as §1

Data set [5] in a line: Emission lifetime measurement. Format: physicochemical. In outline:
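Emission lifetimes measured by time-correlated single-photon counting (0.5 ns time resolution), excitation from a D2 lamp and a 405 nm pulsed diode laser. Estimated error 5% on lifetime.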

Data set [6] in a line: UV/Vis absorption spectra. Format: physicochemical. Conditions: room temperature, air-saturated CH2Cl2 or CH2Cl2/MeOH (1:1), 50 μM; ε in brackets, sh = shoulder. On the procedure: UV/Vis absorption spectra were recorded at RT on solutions contained in quartz cuvettes (optical pathlength 1 cm, Hellma®) with a PerkinElmer® UV/VIS/NIR spectrophotometer Lambda 950 and a PerkinElmer® detector UV/VIS/NIR Accessory 2D Detector Module.

Where “and” joins values, the source holds several entries; their conditions need not be identical. Identical values can stand only once. Like-named read-outs stand apart in the source and are kept apart here.

A word on the Log P: it is the decadic logarithm of the partition coefficient of the neutral form, usually between octanol and water. The term GI50 denotes the concentration at which growth is held to half of that of the control. With `F[P-](F)(F)(F)(F)F.O=C(NCCCn1cc[n+]2[c]1[Ir-3]13([c]4c(sc5ccccc45)-c4cccc[n+]41)([c]1c(sc4ccccc14)-c1cccc[n+]13)[n+]1ccccc1-2)[c-]1cccc1.[Fe+2].c1cc[cH-]c1` [IV-j], the “Log P” value in data set [1] is 1.07 ± 0.07. In addition, the “ΦP emission phosphorescence quantum yield” value in data set [2] was found to be 0.01%. The GI50 in data set [3] (MC3T3, blue light) came to 3.9 µM; in data set [4] (NIH-3T3, blue light) it was 14 µM; in data set [4] (NIH-3T3, dark), 62.8 µM. Also, the “Photosensitizing index (PI)” value is reported as 4.2 in data set [3] and 4.5 in data set [4]. The molecule further had a τ1 emission lifetime in data set [5] of 196 ns. For the same molecule, the “λmax (nm) ε (M^−1 · cm^−1)” value in data set [6] is on record as 322 (15400), 342 (sh) (14040), 434 (6150) nm (M^−1 · cm^−1).
With `F[P-](F)(F)(F)(F)F.O=C(NCCCn1cc[n+]2[c]1[Ir-3]13([c]4ccccc4-c4sc5ccccc5[n+]41)([c]1ccccc1-c1sc4ccccc4[n+]13)[n+]1ccccc1-2)[c-]1cccc1.[Fe+2].c1cc[cH-]c1` [IV-k], in data set [1] (n-octanol/water, shake-flask, mean of at least three determinations), the “Log P” value was determined as 0.74 ± 0.05. Further, the “ΦP emission phosphorescence quantum yield” value in data set [2] is recorded as 0.08%. Besides, the GI50 in data set [3] (MC3T3, blue light) is 5.1 µM; in data set [3] (MC3T3, dark) it was 10.2 µM and 11.6 µM; in data set [4] (NIH-3T3, blue light), 11.6 µM; in data set [4] (NIH-3T3, dark) it was 18.7 µM. For the same molecule, the figures for the “Photosensitizing index (PI)” value in data set [3] and in data set [4] were 2.3 and 1.6, respectively. Moreover, the τ1 emission lifetime in data set [5] is on record as 212 ns. Also, in data set [6], the “λmax (nm) ε (M^−1 · cm^−1)” value was 321 (24910), 371 (sh) (7200), 407 (5940) nm (M^−1 · cm^−1).
